Experimental data published in US10307383B2, “Cosmetic composition for preventing or ameliorating hypersensitive skin comprising cedrol or derivatives thereof, or pharmaceutically acceptable salts thereof” (University of Seoul Industry Cooperation Foundation, priority 2017, dated 2019).

Columns and labels:
[1] = Weight changes in the psoriasis induced mice (oral administration during imiquimod application); type: in vivo, Balb/c mouse; settings: 100 mg/kg oral once a day during application of IMQ; increase
Method: To investigate the delayed effect of cedrol, cedryl acetate, and alpha-cedrene on the development of psoriasis, total 5 groups of mice were prepared (8 mice/group). First, the hair of the entire back of the 8-week-old male Balb/c mouse whose immune system was weakened was removed by using a hair clipper (Kimlaube Hair pen 325,327, Rikei, Korea). In the middle of the shaved back of the mouse, 2 mg of imiquimod (3M Health Care Limited, England) was applied in the area of 2 cm×1.5 cm and also 1,125 mg of imiquimod was applied on the right ear of the mouse every day once a day to induce psoriasis.
The mice prepared above were divided into the distilled water treated group (IMQ), the cedrol treated group (C), the cedryl acetate treated group (CA), and the alpha-cedrene treated group (CE). […] The day when distilled water or the compound administration started was recorded as day 0 and the administration was performed once a day for a week, during which photo-recording was performed every day (FIGS. 2A˜2D). […]
To compare the weight changes in the psoriasis induced mice according to the oral administration of cedrol, cedryl acetate, and alpha-cedrene of Example <2-1>, the weight of each mouse was measured at the same time every day for a week.

[2] = test system: psoriasis induced mice (imiquimod); test: Cumulative score of PASI for ear thickness, keratosis and skin flair (recovery phase); type: in vivo, Balb/c mouse; settings: 100 mg/kg oral after termination of imiquimod
Method: Imiquimod was applied to the psoriasis induced mice which had developed psoriasis for a week in Example <2-1>. The application was stopped 8 days after the application began. The groups CON and IMQ were treated with distilled water, the group C was treated with cedrol, the group CA was treated with cedryl acetate, the group CE was treated with alpha-cedrene alone at the concentration of 100 mg/kg in 200 μl, every day via oral-administration. Day 8 was the day the imiquimod application was stopped, since then the compounds were administered for 1 week once a day, during which photo-recording was performed (FIGS. 13A˜13D).
The psoriasis area severity index obtained in Examples <3-2> and <3-4> was accumulated to compare the psoriasis area severity index for ear thickness, keratosis and skin flair of the mouse groups respectively treated with cedrol, cedryl acetate, and alpha-cedrene via oral-administration.

- weight change for 7 days [1]: 0.025 g
SMILES: C[C@@H]1CC[C@H]2C(C)(C)[C@H]3C[C@@]12CC[C@@]3(C)O [cedrol, Cedrol]
- cumulative PASI (ear thickness, keratosis, skin flair) recovery effect, in words [2]: strongest recovery effect
